# Experimental data taken from patent US20250214969A1, “PROTEIN DEGRADERS AND USES THEREOF” (Kymera Therapeutics, Inc., priority 2022, published 2025).
# What was measured:
# [1] = target: T1, truncated His-MBP-Tev-KLHDC2 (residues 1-363) (Homo sapiens, UniProt Q9Y2U9); assay: KLHDC2 HTRF binding assay; conditions: 1 nM KLHDC2 (residues 1-363), fluorescein-labeled diglycine peptide probe
# T1 construct: truncated His -MBP-Tev-KLHDC2 (residues 1-363) purified from E. coli; made in house; host or cells: E. coli
# T1 sequence (Q9Y2U9 1-363): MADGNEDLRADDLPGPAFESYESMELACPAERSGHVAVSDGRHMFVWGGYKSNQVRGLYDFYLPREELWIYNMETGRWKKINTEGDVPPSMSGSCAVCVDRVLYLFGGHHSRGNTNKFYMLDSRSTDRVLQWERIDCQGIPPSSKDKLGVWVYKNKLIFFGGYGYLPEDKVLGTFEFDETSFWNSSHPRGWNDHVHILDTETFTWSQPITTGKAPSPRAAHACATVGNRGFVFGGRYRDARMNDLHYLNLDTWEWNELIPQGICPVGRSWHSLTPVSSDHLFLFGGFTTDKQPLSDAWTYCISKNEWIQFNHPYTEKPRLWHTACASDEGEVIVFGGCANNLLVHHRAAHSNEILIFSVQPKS
# [2] = target: T1, truncated His-MBP-Tev-KLHDC2 (residues 1-363); assay: KLHDC2 FP competition binding assay; conditions: 15 nM KLHDC2 (residues 1-363), 10 nM fluorescein-labeled diglycine peptide probe, read-out: KLHDC2 binding Human FP: average external IC50
Structure (SMILES),IC50 [1] [µM],IC50 [2] [µM]
CC(C)Cn1cnc2c(C(=O)Nc3ccc(=O)n(CC(=O)O)c3)cccc21 [I-133],0.5 to 5,> 5
O=C(O)Cn1cc(-c2ccc(C(=O)N3CCOCC3)cc2)ccc1=O [I-392],> 5,> 5
Cc1ccc(Cl)cc1-c1ccc(=O)n(CC(=O)O)c1 [I-401],> 5,> 5
O=C(O)Cn1cc(NC(=O)COc2ccc(C(F)(F)F)cc2)ccc1=O [I-256],> 5,> 5
O=C(O)Cn1cc(N2CCOCC2)ccc1=O [I-355],> 5,> 5
O=C(Nc1ccc(=O)n(Cc2nn[nH]n2)c1)c1cccc(-c2cccnc2)c1 [I-79],> 5,> 5
CC(C)(C)OC(=O)NCCCCCCc1cncc(-c2cccc(C(=O)Nc3ccc(=O)n(CC(=O)O)c3)c2)c1 [I-169],< 0.05,0.05 to 0.5
O=C(O)Cn1cc(NC(=O)c2ccc(-c3cccnc3)cc2)ccc1=O [I-198],0.5 to 5,> 5
CS(=O)(=O)c1cccc(-c2cccc(C(=O)Nc3ccc(=O)n(CC(=O)O)c3)c2)c1 [I-194],> 5,> 5
O=C(O)Cn1cc(-c2ccc3cn[nH]c3c2)ccc1=O [I-386],> 5,> 5
CC(C)c1ccc(C(=O)Nc2ccc(=O)n(CC(=O)O)c2)cc1-c1ccccc1 [I-175],0.5 to 5,> 5
NCCCCCCc1ccc(C(=O)Nc2ccc(=O)n(CC(=O)O)c2)cc1-c1cccnc1 [I-144],0.5 to 5,0.5 to 5
O=C(O)C1CC(=O)N(CCOc2ccccc2Cl)C1 (stereo not shown) [I-228],> 5,> 5
COc1cc(-c2ccc(F)cc2)ccc1C(=O)Nc1ccc(=O)n(CC(=O)O)c1 [I-155],0.05 to 0.5,0.5 to 5
CSCCC(NC(=O)c1ccccc1C)C(=O)Nc1ccc(=O)n(CC(=O)O)c1 (stereo not shown) [I-208],> 5,> 5
Nc1ccc(F)c2c(O)n[nH]c12 [I-427],0.5 to 5,> 5
CS(=O)(=O)c1ccccc1-c1ccc(=O)n(CC(=O)O)c1 [I-394],> 5,> 5
Cn1cc(-c2cccc(C(=O)Nc3ccc(=O)n(CC(=O)O)c3)c2)ccc1=O [I-178],> 5,> 5
O=C(O)Cn1cc(N2CCc3ccccc3C2=O)ccc1=O [I-95],0.5 to 5,> 5
O=C(O)CCC(=O)NCc1nc2ccccc2s1 [I-225],> 5,> 5
N#Cc1cc(=O)n(CC(=O)O)cc1NC(=O)c1cccc(-c2cccnc2)c1 [I-25],0.05 to 0.5,0.5 to 5
COc1cc(-c2nccs2)ccc1C(=O)Nc1ccc(=O)n(CC(=O)O)c1 [I-148],0.5 to 5,0.5 to 5

Structure (SMILES),IC50 [1] [µM],IC50 [2] [µM]
NCCCCCCCCCc1cccc2c(-c3cccc(C(=O)Nc4ccc(=O)n(CC(=O)O)c4)c3)cncc12 [I-109],0.05 to 0.5,> 5
COc1ccc(-c2cccc(C)c2)cc1CC(=O)O [I-353],> 5,> 5
O=C(O)Cn1cc(-c2cccs2)ccc1=O [I-424],> 5,> 5
N#Cc1ccc(OCC(=O)Nc2ccc(=O)n(CC(=O)O)c2)cc1 [I-270],> 5,> 5
O=C(O)Cn1cc(-c2cccc(F)c2)ccc1=O [I-420],> 5,> 5
O=C(O)Cn1cc(NC(=O)c2ccc(-c3ccccc3)s2)ccc1=O [I-249],0.5 to 5,> 5
O=C(O)Cn1cc(NC(=O)C(c2ccccc2)c2ccccc2)ccc1=O [I-328],> 5,> 5
Cc1cc(-c2ccc(=O)n(CC(=O)O)c2)c(C)cc1O [I-360],> 5,> 5
O=C(O)Cn1cc(NC(=O)COc2ccc(Cl)cc2)ccc1=O [I-278],> 5,> 5
CCc1cccc(-c2ccc(=O)n(CC(=O)O)c2)c1 [I-345],> 5,> 5
Cc1ccc(F)c(-c2ccc(=O)n(CC(=O)O)c2)c1 [I-343],> 5,> 5
CCCCC(=O)Nc1cncc(C(=O)Nc2ccc(=O)n(CC(=O)O)c2)c1 [I-241],> 5,> 5
Cc1sc2c(c1C)C(c1ccc(Cl)cc1)=N[C@@H](CC(=O)NCCCCCCc1cc(C(=O)Nc3ccc(=O)n(CC(=O)O)c3)cc(-c3cccnc3)c1)c1nnc(C)n1-2 [I-476],0.05 to 0.5,< 0.05
O=C(O)Cn1cc(N2C[C@]3(CCCN(c4cccnc4)C3)CC2=O)ccc1=O [I-16],> 5,> 5
Cc1ccc(CC(C)C)cc1-c1ccc(=O)n(CC(=O)O)c1 [I-334],> 5,> 5
O=C(O)Cn1cc(-c2cccc(N3CCCCC3)c2)ccc1=O [I-314],> 5,> 5
O=C(O)Cn1cc(-c2cccc(N3CCOCC3)c2)ccc1=O [I-322],> 5,> 5
NCCCCCCc1ccncc1-c1cccc(C(=O)Nc2ccc(=O)n(CC(=O)O)c2)c1 [I-163],0.5 to 5,0.5 to 5
O=C(O)Cn1cc(N2CCc3cc(-c4cccnc4)ccc3C2=O)ccc1=O [I-68],0.5 to 5,> 5
O=C(O)Cn1cc(-c2cccc(/C=C/c3ccccc3)c2)ccc1=O [I-296],> 5,> 5
Cc1ccc2c(c1C)NC(C(=O)O)C1CC=CC21 (stereo not shown) [I-426],> 5,> 5
O=C(O)Cn1cc(NC(=O)CCCc2ccc(C3CC3)cc2)ccc1=O [I-239],0.5 to 5,> 5

# Results, then the compound that gave them:
IC50 [1] [µM],IC50 [2] [µM],Structure (SMILES)
0.5 to 5,> 5,O=C(O)Cn1cc(NC(=O)c2cccc(-c3cncs3)c2)ccc1=O [I-168]
0.5 to 5,0.5 to 5,O=C(O)Cn1cc(NC(=O)c2cc(-c3cccnc3)c3ccccc3c2)ccc1=O [I-88]
0.05 to 0.5,0.5 to 5,Cc1ccc(C(=O)Nc2ccc(=O)n(CC(=O)O)c2)cc1-c1cccnc1 [I-202]
0.05 to 0.5,0.5 to 5,CNc1cncc(N2CCC[C@H](C(=O)Nc3ccc(F)c(CC(=O)O)c3)C2)c1 [I-19]
> 5,> 5,Cc1cccc(Cl)c1C(=O)Nc1ccc(=O)n(CC(=O)O)c1 [I-319]
> 5,> 5,O=C(O)Cc1cc(-c2ccccc2)ccc1O [I-335]
> 5,> 5,O=C(O)Cc1cc(NC(=O)[C@@H]2CCCN(c3cccnc3)C2)ccc1F [I-27]
0.05 to 0.5,0.5 to 5,"CCc1cc(=O)n(CC(=O)O)cc1NC(=O)[C@H]1CCCN(c2cccnc2)C1 [I-50, 2-[4-ethyl-2-oxo-5-[(3S)-1-(3-pyridyl)piperidine-3-carbonyl|amino]-1-pyridyl]acetic acid]"
0.5 to 5,> 5,CC(C)c1cc(=O)n(CC(=O)O)cc1NC(=O)[C@H]1CCCN(c2cccnc2)C1 [I-46]
0.5 to 5,> 5,O=C(O)Cn1cc(NC(=O)c2cccc(-c3cccnc3)c2)c(C2CC2)cc1=O [I-62]
> 5,> 5,O=C(O)Cn1cc(NC(=O)COc2cccc3ncccc23)ccc1=O [I-263]
> 5,> 5,O=C(O)Cc1cc(NC(=O)[C@@H]2CCCN(c3cccnc3)C2)ccc1Cl [I-30]
0.5 to 5,0.5 to 5,O=C(O)Cn1cc(NC(=O)c2ccc(-c3ccccc3)cc2F)ccc1=O [I-161]
< 0.05,0.5 to 5,O=C(O)Cn1cc(NC(=O)c2cccc(-c3cncc4ccccc34)c2)ccc1=O [I-131]
> 5,> 5,CC(Cc1ccccc1Cl)C(=O)Nc1ccc(=O)n(CC(=O)O)c1 (stereo not shown) [I-310]
> 5,> 5,Cc1ccc2nc(C(=O)Nc3ccc(=O)n(CC(=O)O)c3)ccc2c1 [I-187]
0.5 to 5,> 5,O=C(O)Cn1cc(NC(=O)c2cccc(-c3ccccc3)c2)ccc1=O [I-315]
> 5,> 5,O=C(O)Cn1cc(NC(=O)c2ccnc(-c3ccccc3)c2)ccc1=O [I-260]
0.5 to 5,> 5,O=C(O)Cn1cc(NC(=O)[C@H]2CCCN(c3cccnc3)CC2)ccc1=O [I-28]
0.5 to 5,> 5,C[C@@]1(C(=O)Nc2ccc(=O)n(CC(=O)O)c2)CCCN(c2cccnc2)C1 [I-66]
0.05 to 0.5,0.5 to 5,COc1cncc(N2CCC[C@H](C(=O)Nc3ccc(Cl)c(CC(=O)O)c3)C2)c1 [I-20]
> 5,> 5,O=C(O)Cn1cc(NC(=O)[C@H]2Cc3ccccc3N(c3cccnc3)C2)ccc1=O [I-12]
0.05 to 0.5,0.5 to 5,CCc1cncc(N2CCC[C@H](C(=O)Nc3ccc(Cl)c(CC(=O)O)c3)C2)c1 [I-21]
> 5,> 5,O=C(O)CCn1cc(NC(=O)c2cccc(-c3cccnc3)c2)ccc1=O [I-94]
0.5 to 5,> 5,Cc1ccc(C(=O)Nc2ccc(=O)n(CC(=O)O)c2)cc1-c1ccccc1 [I-269]
> 5,> 5,COc1cncc(-c2cccc(C(=O)Nc3ccc(O)c(CC(=O)O)c3)c2)c1 [I-22]
< 0.05,0.05 to 0.5,O=C(O)Cc1cc(NC(=O)[C@H]2CCCN(c3cncc4ccccc34)C2)ccc1Cl [I-7]
